Test in all cases: inhibition of tumour cell growth, NCI panel, 48 h
Assay [1] concerns SF-539.
Assay [2] concerns DU-145.
Assay [3] concerns NCI-H23.
The test system of assay [4] is SF-268.
Assay [5] relates to OVCAR-4.
Assay [6] has as its system RXF 393.
Assay [7] deals with OVCAR-5.
The test system of assay [8] is TK-10.
In assay [9] the test system is SR.
The subject of assay [10] is 786-0.
In assay [11] the test system is CCRF-CEM.
The test system of assay [12] is MOLT-4.
Assay [13] has as its system HT-29.
For assay [14], the system named is K562.
Assay [15] concerns M14.
Assay [16] deals with OVCAR-3.
In assay [17] the test system is UACC-62.
The subject of assay [18] is HCT-15.
In assay [19] the test system is NCI-H460.
Assay [20] relates to NCI-H226.

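Step 1: Grow cells in 96-well plates. Step 2: Expose to compound for 48 hours at 5 concentrations. Step 3: Interpolate endpoints linearly; if unreached, use highest concentration. Abbreviation: GI50, concentration required for 50% inhibition of growth.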 Active and inactive are the calls of the source. Rule as the data show it: active = GI50 up to about 1.1 µM and inactive = higher. Some results are limits rather than exact numbers.

For the compound `OC1(c2ccc(Cl)cc2)c2ccc(CN3CCCC3)cc2C2=NCCN21` (stereo unspecified), the GI50 was 13.2 µM (inactive) in assay [1]; 16 µM (inactive) in assay [2]; 16.9 µM (inactive) in assay [3]; 14.8 µM (inactive) in assay [4]; 12.3 µM (inactive) in [5]; 8.26 µM (inactive) in [6]. Further, the GI50 in assay [7] was 16.7 µM (inactive); in assay [8] it was 4.98 µM (inactive); in assay [9], 10.4 µM (inactive); in assay [10] it was 15.2 µM (inactive); in assay [11], 12.2 µM (inactive); in assay [12], 11.6 µM (inactive). For the same compound, the GI50 was 13.1 µM (inactive) in assay [13]; 16.1 µM (inactive) in assay [14]; 3.66 µM (inactive) in assay [15]; 16.1 µM (inactive) in assay [16]; 14.7 µM (inactive) in assay [17]; 17.3 µM in assay [18]. Moreover, in assay [19], the GI50 was 14.6 µM (inactive).
Consider `CCc1c2c(nc3ccc(O)cc13)-c1cc3c(c(=O)n1C2)COC(=O)[C@]3(O)CC` [7-ETHYL-10-HYDROXYCAMPTOTHECIN], for which the GI50 in assay [1] was < 0.001 µM (active); in assay [2], < 0.001 µM (active); in assay [3], < 0.001 µM (active); in [4], < 0.001 µM (active); in assay [5], 0.00227 µM (active); in assay [7] it was 0.00472 µM (active). In addition, the GI50 in assay [8] was 0.0933 µM (active); in assay [9], < 0.001 µM (active); in assay [10], < 0.001 µM (active); in [11], < 0.001 µM (active); in assay [12] it was < 0.001 µM (active); in assay [15] it was < 0.001 µM (active). Besides, the GI50 in [20] is < 0.001 µM (active); in assay [16], 0.0116 µM (active); in [17] it was < 0.001 µM (active); in assay [18], 0.00711 µM; in assay [19] it was < 0.001 µM (active).
Take `Nc1ncnc2c1ncn2CCCCC(=O)O`: the GI50 in assay [1], in [2], in assay [3], in assay [4], in assay [5] and in assay [6] was > 100 µM (inactive) throughout. The GI50 in assay [7], in [8], in assay [9], in assay [10], in assay [12] and in [13] was > 100 µM (inactive) each time. The GI50 in assay [14] was > 100 µM (inactive); in [15], > 100 µM (inactive); in assay [20], > 100 µM (inactive); in [16], > 100 µM (inactive); in assay [17] it was > 100 µM (inactive); in assay [18] it was > 100 µM. The GI50 in [19] is > 100 µM (inactive).
For `COC1(OC)CC(CO)(CNc2nc(N)nc(Cl)c2C=O)C1`, the GI50 was > 100 µM (inactive) in assay [1]; 95.9 µM (inactive) in assay [2]; 17.6 µM (inactive) in assay [3]; 44.2 µM (inactive) in assay [4]; 25.2 µM (inactive) in assay [5]; 34.1 µM (inactive) in [6]. For the same compound, the GI50 in [7] is > 100 µM (inactive); in [8] it was > 100 µM (inactive); in assay [9] it was 20.1 µM (inactive); in assay [10] it was > 100 µM (inactive); in assay [11] it was 27.8 µM (inactive); in [12], 21.1 µM (inactive). Also, the GI50 was 55.6 µM (inactive) in [13]; 5.74 µM (inactive) in assay [14]; 93.3 µM (inactive) in assay [20]; 39.9 µM (inactive) in assay [16]; 26 µM in [18]; 85.7 µM (inactive) in assay [19].
With `Clc1ccc(CCN[C@H]2CCCC[C@H]2N2CCCC2)cc1Cl`, the GI50 in [1] is 28.4 µM (inactive); in assay [2], 21.8 µM (inactive); in [3], 23.8 µM (inactive); in assay [4] it was 32.2 µM (inactive); in [5], 21.5 µM (inactive); in assay [7] it was 20.6 µM (inactive). Moreover, the GI50 in assay [8] is 7.19 µM (inactive); in assay [9], 28.7 µM (inactive); in [10], 24 µM (inactive); in [11] it was 30.7 µM (inactive); in [12] it was 24.4 µM (inactive); in [13] it was 9.1 µM (inactive). In addition, the GI50 is 24.2 µM (inactive) in [14]; 15.3 µM (inactive) in assay [15]; 21.1 µM (inactive) in assay [20]; 19.6 µM (inactive) in assay [16]; 17.8 µM (inactive) in assay [17]; 9.59 µM in [18]. The GI50 in assay [19] was 14.9 µM (inactive).
Regarding `O=c1c(C(c2cccnc2)c2c(O)oc3cc(O)ccc3c2=O)c(O)oc2cc(O)ccc12`, the GI50 in assay [1], in [2], in assay [3], in assay [4], in assay [6] and in assay [7] was > 100 µM (inactive) throughout. In addition, the GI50 in assay [8], in assay [9], in [10], in [12], in assay [13] and in [14] was > 100 µM (inactive) in each case. Besides, the GI50 in [15] is > 100 µM (inactive); in assay [20], > 100 µM (inactive); in assay [16], > 100 µM (inactive); in [17], > 100 µM (inactive); in assay [18], > 100 µM; in [19] it was > 100 µM (inactive).
For the compound `CC1=C(/C=C/C(C)=C/C=C/C(C)=C/CO)C(C)(C)CCC1` [RETINOL], the GI50 in assay [1] was 14.1 µM (inactive); in assay [2], 38.3 µM (inactive); in assay [3] it was 21.8 µM (inactive); in assay [4], 28.6 µM (inactive); in assay [5] it was 37.7 µM (inactive); in assay [6] it was 12.4 µM (inactive). The GI50 in [7] was 24.9 µM (inactive); in [9] it was 18.1 µM (inactive); in assay [10] it was 17.2 µM (inactive); in [11], 22.3 µM (inactive); in assay [12], 18 µM (inactive); in assay [13], 27.2 µM (inactive). Further, the GI50 was 26.5 µM (inactive) in assay [14]; 16.8 µM (inactive) in assay [15]; 20.7 µM (inactive) in assay [20]; 14.3 µM (inactive) in assay [16]; 19.5 µM (inactive) in assay [17]; 30.6 µM in [18]. For the same compound, the GI50 in [19] was 30.5 µM (inactive).
With `CN(C(=O)C12C3C4C1C1C2C3C41C(=O)O)C(C)(C)C` (stereo unspecified), the GI50 in assay [1], in [2], in [3], in assay [4], in [5] and in assay [6] was > 100 µM (inactive) in each case. Further, the GI50 in [7], in [8], in assay [9], in [10], in assay [11] and in assay [12] was > 100 µM (inactive) each time. Also, the GI50 in assay [13] is > 100 µM (inactive); in assay [14], > 100 µM (inactive); in [15] it was > 100 µM (inactive); in assay [16], > 100 µM (inactive); in [17], > 100 µM (inactive); in assay [18], > 100 µM. In assay [19], the GI50 is > 100 µM (inactive).
With `CC1Cc2c(Br)nc(N)nc2NC1=O` (stereo unspecified), the GI50 in [1], in assay [2], in assay [3], in assay [4], in [5] and in [7] was > 100 µM (inactive) each time. For the same compound, the GI50 in assay [8] is > 100 µM (inactive); in assay [9] it was 86.3 µM (inactive); in assay [10] it was > 100 µM (inactive); in assay [12], > 100 µM (inactive); in [13] it was > 100 µM (inactive); in assay [14] it was > 100 µM (inactive). In addition, the GI50 in assay [15] is > 100 µM (inactive); in assay [20], > 100 µM (inactive); in assay [16], > 100 µM (inactive); in assay [17] it was > 100 µM (inactive); in [18] it was > 100 µM; in assay [19], > 100 µM (inactive).
As for `CN1CC(c2ccccc2)C(O)(C2(c3ccccc3)CN(C)CC(c3ccccc3)C2=O)C(c2ccccc2)C1` (stereo unspecified), the GI50 in [1], in [2], in [3], in assay [4], in [5] and in assay [7] was > 100 µM (inactive) throughout. For the same compound, the GI50 in assay [8], in [9], in assay [10], in [12], in assay [13] and in assay [14] was > 100 µM (inactive) each time. Also, the GI50 in assay [15] is > 100 µM (inactive); in assay [20], > 100 µM (inactive); in assay [16], > 100 µM (inactive); in assay [17], > 100 µM (inactive); in [18], > 100 µM; in assay [19], 45.8 µM (inactive).
As to `O=C(O)c1ccccc1Sc1ccc(C=C2NC(=S)N(c3ccccc3)C2=O)s1`, the GI50 was > 100 µM (inactive) in assay [2]; > 100 µM (inactive) in assay [3]; > 100 µM (inactive) in [4]; 24.9 µM (inactive) in assay [5]; > 100 µM (inactive) in assay [6]; > 100 µM (inactive) in assay [7]. Besides, the GI50 was 76.2 µM (inactive) in [8]; 29 µM (inactive) in [9]; 18.8 µM (inactive) in assay [10]; 54.1 µM (inactive) in assay [12]; > 100 µM (inactive) in [13]; 31.6 µM (inactive) in assay [14]. Further, the GI50 in assay [20] was > 100 µM (inactive); in assay [16], 47.5 µM (inactive); in assay [17], > 100 µM (inactive); in [18], > 100 µM; in assay [19], > 100 µM (inactive).

The record behind these values is ChEMBL document CHEMBL1201862, “PubChem BioAssay data set” (2004).
